Measured values: patent publication US10028992B2, “Methods of treating muscular dystrophy” (BOARD OF REGENTS OF THE NEVADA SYSTEM OF HIGHER EDUCATION …, priority 2012, dated 2018)

Test system: α7 integrin promoter
Assay: muscle cell-based assay: α7βgal+/− myoblasts/myotubes, LacZ reporter, β-galactosidase cleavage of FDG
Design: species or system mouse; Results in α7+/− β-galactosidase assay: scale not given here
Settings: for Results in a α7+/− β-galactosidase assay, Myotubes, 0.5 uM: compound at 0.5 uM; for Results in a α7+/− β-galactosidase assay, Myotubes, 1 uM: compound at 1 uM; for Results in a α7+/− β-galactosidase assay, Myotubes, 5 uM: compound at 5 uM; for Results in a α7+/− β-galactosidase assay, Myotubes, 10 uM: compound at 10 uM; for Results in a α7+/− β-galactosidase assay, Myotubes, 20 uM: compound at 20 uM; for Results in a α7+/− β-galactosidase assay, Myotubes, 40 uM: compound at 40 uM; for AC50 / Emax / EC50: Mus musculus; for AC50: log of AC50, given with negative sign, unit of AC50 not given, read-out: Fit Log AC50 (converted); for Emax: read-out: Max Response [%]; for Fit Curve Class: key not given; for Results in α7+/− β-galactosidase assay: Myoblasts; for EC50: given as log AC50 (negative values), read-out: Fit LogAC50 (converted)
Protocol: An α7 integrin null mouse was produced in which exon 1 of the gene encoding the α7 integrin was replaced by the LacZ reporter. In these mice, all the transcriptional regulatory elements of the α7 integrin promoter were retained, allowing β-galactosidase to report expression of 7 integrin. A primary myoblast cell line (designated α7βgal^+/−) isolated from 10 day old α7^+/− pups were analyzed for the ability of β-galactosidase to report α7 integrin expression. α7βgal^+/− myoblasts were differentiated and subjected to X-gal staining and western analysis (FIGS. 1A and 1B).
The activity of the α7 integrin promoter was measured by β-galactosidase cleavage of the non-fluorescent compound fluorescein di-β-D-galactopyranoside (FDG) to fluorescein. This assay was used to screen compound libraries to identify molecules that up-regulate α7 integrin expression in muscle.
Also evaluated was the effect of various isoforms of laminin and the ligand for α7β1 integrin on integrin expression. Positive hits were subjected to dose-response analysis, western analysis and a myostatin counterscreen (a negative regulator of muscle growth).

[1] = Table 12, fitted activity at zero concentration
[2] = Table 12 Compound data, concentration-response curve fit
[3] = curve fit, activity at zero concentration

For CC(C)(C)Nc1nc(-c2ccc3c(c2)CCN3C(=O)C2CC2)cs1 [drawing 345], the “Results in a α7+/− β-galactosidase assay, Myotubes, 0.5 uM” value (“Results … 0.5 uM” below) was 0.1684, the “Results in a α7+/− β-galactosidase assay, Myotubes, 1 uM” value (“Results … 1 uM” for short) was 0.1611 and the “Results in a α7+/− β-galactosidase assay, Myotubes, 5 uM” value (“Results … Myotubes, 5 uM” below) was 0.06864. For the same molecule, the “Results in a α7+/− β-galactosidase assay, Myotubes, 10 uM” value (shortened to “Results … 10 uM”) was 0.06011, the “Results in a α7+/− β-galactosidase assay, Myotubes, 20 uM” value (from here on “Results … 20 uM”) was −0.1349 and the “Results in a α7+/− β-galactosidase assay, Myotubes, 40 uM” value (“Results … 40 uM” for short) was −0.5189.

With CCOc1ccc(S(=O)(=O)NCCC(=O)NCC(c2cccs2)N2CCOCC2)cc1 (centres unmarked) [Compound 14] the AC50 (Table 12) was 2.24 µM, the Emax was 61.7% and the “Fit HillSlope” value (Table 12, curve fit) was 2.3332. For the same molecule, the “Fit Zero Activity [%]” value [1] was −21.9345%, the “Fit Curve Class” value (Table 12) was 1.1 and the Score [2] was 84.

In the case of COc1ccc(N2CCN(C(=O)c3cc(C)on3)CC2)cc1 [drawing 539], the “Results in α7+/− β-galactosidase assay” value (0.5 uM) is reported as 0.06118, the “Results in α7+/− β-galactosidase assay” value (1 uM) is reported as 0.157 and the “Results in α7+/− β-galactosidase assay” value (5 uM) is reported as 0.07966. For the same molecule, the “Results in α7+/− β-galactosidase assay” value (10 uM) was 0.01243, the “Results in α7+/− β-galactosidase assay” value (20 uM) was 0.1011 and the “Results in α7+/− β-galactosidase assay” value (40 uM) was 0.07367.

With O=C(Nc1ccc(S(=O)(=O)Nc2nccs2)cc1)c1ccccc1OC(F)F [Compound 137] the EC50 was 10 µM, the Score (Table 12 compound data) was 42 and the “Fit Curve Class” value (curve class number) was 2.1. For the same molecule, the “Fit HillSlope” value (curve fit) was 4.9549 and the “Fit Zero Activity [%]” value [3] was −19.2861%.

CCOc1ccc(NC(=O)CN2C(=O)NC(CCSC)C2=O)cc1 (centres unmarked) [Compound 180] was tested, and the EC50 was 10 µM, the Score (Table 12 compound data) was 42 and the “Fit Curve Class” value (curve class number) was 2.2. The “Fit HillSlope” value (curve fit) was 3.1925 and the “Fit Zero Activity [%]” value [3] was −1.6238%.

With Cc1cc(NC(=O)c2ccc(Cl)cc2Cl)no1 [Compound 19] the AC50 (Table 12) was 1.41 µM, the Emax was 52.1% and the “Fit HillSlope” value (Table 12, curve fit) was 1.3437. The “Fit Zero Activity [%]” value [1] was −28.8963%, the “Fit Curve Class” value (Table 12) was 1.1 and the Score [2] was 84.

For COc1c(Cl)cc(/C=C2\C(=O)Nc3ccccc32)cc1Cl [drawing 504], the “Results … 0.5 uM” value was −0.04389, the “Results … 1 uM” value was −0.02066 and the “Results … Myotubes, 5 uM” value was −0.212. The “Results … 10 uM” value was −0.2296, the “Results … 20 uM” value was −0.06953 and the “Results … 40 uM” value was −0.1103.

In the case of COc1ccccc1C(=O)NCCOc1ccc(C(C)(C)C)cc1 [Compound 168], the EC50 is reported as 8.91 µM, the Score (Table 12 compound data) is reported as 42 and the “Fit Curve Class” value (curve class number) is reported as 2.2. For the same molecule, the “Fit HillSlope” value (curve fit) was 1.9673 and the “Fit Zero Activity [%]” value [3] was −0.7805%.

With CN(/C(=N/S(=O)(=O)c1cccs1)c1ccccc1)c1ccccc1 [drawing 589] the “Results in α7+/− β-galactosidase assay” value (0.5 uM) was 0.2361, the “Results in α7+/− β-galactosidase assay” value (1 uM) was −0.03677 and the “Results in α7+/− β-galactosidase assay” value (5 uM) was −0.05696. For the same molecule, the “Results in α7+/− β-galactosidase assay” value (10 uM) was −0.01934, the “Results in α7+/− β-galactosidase assay” value (20 uM) was −0.0583 and the “Results in α7+/− β-galactosidase assay” value (40 uM) was −0.2263.

With CCn1c(=O)c2cc(C(=O)N(C)c3cc(C)ccc3OC)sc2c2ccccc21 [drawing 428] the “Results … 0.5 uM” value was −0.1274, the “Results … 1 uM” value was −0.01854 and the “Results … Myotubes, 5 uM” value was −0.1965. The “Results … 10 uM” value was −0.1001, the “Results … 20 uM” value was −0.31 and the “Results … 40 uM” value was −0.8047.

In the case of O=C1CCc2cc(S(=O)(=O)Nc3ccc(C(F)(F)F)cc3)cc3c2N1CC3 [Compound 138], the EC50 is reported as 11.2 µM, the Score (Table 12 compound data) is reported as 42 and the “Fit Curve Class” value (curve class number) is reported as 2.1. For the same molecule, the “Fit HillSlope” value (curve fit) was 1.3437 and the “Fit Zero Activity [%]” value [3] was −27.3652%.

In the case of COc1cc(C=O)ccc1OCC(=O)Nc1ccc2c(c1)OCO2 [drawing 425], the “Results … 0.5 uM” value is reported as −0.1155, the “Results … 1 uM” value is reported as −0.1633 and the “Results … Myotubes, 5 uM” value is reported as 0.1998. For the same molecule, the “Results … 10 uM” value was 0.4511, the “Results … 20 uM” value was −0.2886 and the “Results … 40 uM” value was 0.003215.
